The target of the experiment is T1, PLK4 (Homo sapiens, UniProt O00444).
T1 construct: purchased Thermo Fisher Scientific (Life Technologies) SelectScreen
As to the kind of experiment: SelectScreen LanthaScreen. It counts as binding. The following applies: read-out: % displacement. The method in brief: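 SelectScreen broad panel; activity (Z'LYTE, Adapta) plus binding formats. ATP: Km app for CSF1R Z'LYTE; 10 for CAMK1 Adapta. Readout = % per kinase.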
On the technique in general: Time-resolved FRET reads energy transfer from a long-lived donor to a nearby acceptor.

The structures appear in SMILES notation.

T1 sequence (O00444 whole entry): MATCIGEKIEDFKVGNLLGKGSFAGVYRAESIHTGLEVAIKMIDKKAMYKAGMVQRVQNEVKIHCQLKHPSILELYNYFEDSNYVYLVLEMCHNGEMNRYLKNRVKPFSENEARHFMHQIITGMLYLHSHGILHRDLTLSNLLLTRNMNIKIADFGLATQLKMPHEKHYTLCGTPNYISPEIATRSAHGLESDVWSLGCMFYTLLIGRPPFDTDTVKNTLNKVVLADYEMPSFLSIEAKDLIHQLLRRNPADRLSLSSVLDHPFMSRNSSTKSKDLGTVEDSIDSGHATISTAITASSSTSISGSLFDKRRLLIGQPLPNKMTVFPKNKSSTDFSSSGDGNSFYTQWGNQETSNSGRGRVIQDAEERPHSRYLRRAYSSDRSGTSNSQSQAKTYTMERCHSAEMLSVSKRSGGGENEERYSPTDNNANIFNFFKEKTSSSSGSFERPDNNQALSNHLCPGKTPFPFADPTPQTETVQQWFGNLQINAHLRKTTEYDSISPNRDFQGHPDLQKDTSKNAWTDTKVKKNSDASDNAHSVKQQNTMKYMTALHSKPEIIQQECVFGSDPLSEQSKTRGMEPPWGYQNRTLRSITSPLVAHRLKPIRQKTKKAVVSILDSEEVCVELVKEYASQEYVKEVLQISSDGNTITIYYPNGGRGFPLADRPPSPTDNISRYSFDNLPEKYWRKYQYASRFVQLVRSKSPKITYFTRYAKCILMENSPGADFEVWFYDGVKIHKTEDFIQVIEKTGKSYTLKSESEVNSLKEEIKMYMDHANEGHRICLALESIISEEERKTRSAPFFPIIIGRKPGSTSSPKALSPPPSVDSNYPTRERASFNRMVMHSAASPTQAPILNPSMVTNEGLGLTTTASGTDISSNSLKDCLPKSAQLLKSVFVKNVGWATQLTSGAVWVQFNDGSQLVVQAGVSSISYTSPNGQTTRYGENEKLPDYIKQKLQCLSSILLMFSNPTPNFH

With `CN(C(=O)CN1CCOCC1)c1ccc2sc3c(-c4cccc5c(=O)cc(N6CC7CCC(C6)O7)oc45)cccc3c2c1` [NU5455], the inhibition at 1 µM is -2.8%.
